Data as given in ChEMBL document CHEMBL5210307, “Affinity Biochemical Literature for EUbOPEN Chemogenomics Library wave 3” (2023).
Values belong to the molecule of their own block, whether it stands above or below them.

Legend:
[1] = target: Fatty-acid amide hydrolase 1 (Homo sapiens, UniProt O00519); test: Affinity Biochemical interaction (Binding assay) EUB0000540a FAAH; parameters: mode of action Negative control for PF-04457845, recommended concentration 1 uM
[2] = target: Calcium/calmodulin-dependent protein kinase kinase 2 (Homo sapiens, UniProt Q96RR4); test: Affinity Biochemical interaction (Enzymatic activity assay) EUB0000168b CAMKK2; parameters: mode of action Negative control for SGC-CAMKK2-1 (UNC-YL-36), recommended concentration 1 uM
Sequence of Calcium/calmodulin-dependent protein kinase kinase 2 (Q96RR4 whole entry): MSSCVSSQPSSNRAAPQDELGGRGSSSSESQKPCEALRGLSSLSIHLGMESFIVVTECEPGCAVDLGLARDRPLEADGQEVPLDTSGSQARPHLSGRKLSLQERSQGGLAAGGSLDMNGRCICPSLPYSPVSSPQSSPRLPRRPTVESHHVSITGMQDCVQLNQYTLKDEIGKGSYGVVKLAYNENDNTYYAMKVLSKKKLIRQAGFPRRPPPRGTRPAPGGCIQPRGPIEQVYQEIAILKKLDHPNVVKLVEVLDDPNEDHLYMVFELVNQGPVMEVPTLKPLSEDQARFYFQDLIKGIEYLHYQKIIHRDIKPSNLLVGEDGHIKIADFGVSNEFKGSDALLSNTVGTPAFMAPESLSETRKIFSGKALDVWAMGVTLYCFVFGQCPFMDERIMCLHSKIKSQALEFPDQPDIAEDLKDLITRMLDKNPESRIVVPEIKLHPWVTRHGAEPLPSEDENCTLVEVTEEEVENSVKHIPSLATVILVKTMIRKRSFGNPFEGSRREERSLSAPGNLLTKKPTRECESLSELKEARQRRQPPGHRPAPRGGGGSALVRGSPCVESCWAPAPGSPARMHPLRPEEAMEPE

Protein ENL = Protein ENL (Homo sapiens, UniProt Q03111); test: Affinity Biochemical interaction (AlphaScreen assay) EUB0000283b MLLT1; parameters: mode of action Inhibitor, recommended concentration 1 uM
Sequence of Protein ENL (Q03111 whole entry): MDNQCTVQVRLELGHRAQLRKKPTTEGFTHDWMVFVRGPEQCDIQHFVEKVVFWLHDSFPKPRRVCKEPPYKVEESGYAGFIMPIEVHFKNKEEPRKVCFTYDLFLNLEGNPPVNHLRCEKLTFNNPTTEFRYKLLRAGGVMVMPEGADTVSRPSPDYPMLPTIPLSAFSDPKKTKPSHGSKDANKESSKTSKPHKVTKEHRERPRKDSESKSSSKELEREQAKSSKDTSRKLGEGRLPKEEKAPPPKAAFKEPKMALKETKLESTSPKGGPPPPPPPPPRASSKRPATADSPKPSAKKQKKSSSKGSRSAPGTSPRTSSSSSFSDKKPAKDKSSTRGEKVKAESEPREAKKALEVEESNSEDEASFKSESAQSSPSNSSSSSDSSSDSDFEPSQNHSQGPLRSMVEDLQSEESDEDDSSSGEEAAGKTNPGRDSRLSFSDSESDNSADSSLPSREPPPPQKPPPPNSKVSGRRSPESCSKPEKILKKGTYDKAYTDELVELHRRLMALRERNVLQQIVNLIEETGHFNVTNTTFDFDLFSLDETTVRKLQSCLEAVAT

Protein AF-9 = target: T1, Protein AF-9 (Homo sapiens, UniProt P42568); test: Affinity Biochemical interaction (AlphaScreen assay) EUB0000283b MLLT3; parameters: mode of action Inhibitor, recommended concentration 1 uM
T1 sequence (P42568 whole entry): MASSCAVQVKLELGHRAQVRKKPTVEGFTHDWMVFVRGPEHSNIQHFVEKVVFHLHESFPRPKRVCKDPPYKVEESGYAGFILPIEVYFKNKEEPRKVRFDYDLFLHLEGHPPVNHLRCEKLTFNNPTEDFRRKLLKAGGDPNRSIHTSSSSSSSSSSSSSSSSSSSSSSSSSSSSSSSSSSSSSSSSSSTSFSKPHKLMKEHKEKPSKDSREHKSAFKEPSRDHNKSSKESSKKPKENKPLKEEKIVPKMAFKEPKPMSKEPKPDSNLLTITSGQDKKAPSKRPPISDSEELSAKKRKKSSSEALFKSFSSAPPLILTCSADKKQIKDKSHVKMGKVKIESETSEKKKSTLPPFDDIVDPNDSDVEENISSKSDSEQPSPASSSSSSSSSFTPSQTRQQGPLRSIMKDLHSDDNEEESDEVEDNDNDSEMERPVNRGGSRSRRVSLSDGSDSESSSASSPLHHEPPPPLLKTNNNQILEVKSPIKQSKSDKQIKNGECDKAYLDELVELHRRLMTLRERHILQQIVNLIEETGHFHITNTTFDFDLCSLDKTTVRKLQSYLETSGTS

[3] = target: T2, Protein farnesyltransferase subunit beta (Homo sapiens, UniProt P49356); test: Affinity Biochemical interaction (Scintillation proximity assay (SPA)) EUB0000736a FNTB; parameters: mode of action Negative control for ABT-100, recommended concentration 1 uM
T2 sequence (P49356 whole entry): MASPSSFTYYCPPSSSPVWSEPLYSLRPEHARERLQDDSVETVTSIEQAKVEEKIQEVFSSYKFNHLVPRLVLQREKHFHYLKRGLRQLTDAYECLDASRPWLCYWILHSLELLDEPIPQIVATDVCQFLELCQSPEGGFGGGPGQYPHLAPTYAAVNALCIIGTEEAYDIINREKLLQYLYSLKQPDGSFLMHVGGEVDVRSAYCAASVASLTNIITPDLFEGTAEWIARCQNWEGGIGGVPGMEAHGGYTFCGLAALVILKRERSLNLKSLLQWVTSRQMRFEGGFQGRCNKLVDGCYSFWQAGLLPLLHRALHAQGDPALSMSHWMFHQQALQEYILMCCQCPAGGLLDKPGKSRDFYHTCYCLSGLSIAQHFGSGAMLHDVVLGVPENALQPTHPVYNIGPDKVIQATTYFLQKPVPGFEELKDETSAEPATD

[4] = target: Transient receptor potential cation channel subfamily A member 1 (Homo sapiens, UniProt O75762); test: Affinity Biochemical interaction (FLIPR-based Ca2+ assay (activated by 30 µM AITC)) EUB0000547a TRPA1; parameters: mode of action Negative control for A-079, recommended concentration 1 uM
[5] = target: Histone acetyltransferase p300 (Homo sapiens, UniProt Q09472); test: Affinity Biochemical interaction (TR-FRET assay (BHC domains)) EUB0000326a EP300
[6] = target: T2, Protein farnesyltransferase subunit beta; test: Affinity Biochemical interaction (Scintillation proximity assay (SPA)) EUB0000289c FNTB; parameters: mode of action Inhibitor, recommended concentration 1 uM
Angiopoietin-1 receptor = Angiopoietin-1 receptor (Homo sapiens, UniProt Q02763); test: Affinity Biochemical interaction (KdELECT (DiscoverX)) EUB0000703a TEK; parameters: mode of action Negative control for BAY-826, recommended concentration 100 nM
[7] = target: Hepatocyte growth factor receptor (Homo sapiens, UniProt P08581); test: Affinity Biochemical interaction (Homogeneous Time Resolved Fluorescence Assay) EUB0000293b MET; parameters: mode of action Inhibitor, recommended concentration 1 uM
[8] = target: 5'-AMP-activated protein kinase catalytic subunit alpha-1 (Homo sapiens, UniProt Q13131); test: Affinity Biochemical interaction (Biochemical PRKAA1 assay (10 µM ATP)) EUB0000707a PRKAA1; parameters: mode of action Negative control for BAY-3827, recommended concentration 100 nM
Sequence of 5'-AMP-activated protein kinase catalytic subunit alpha-1 (Q13131 whole entry): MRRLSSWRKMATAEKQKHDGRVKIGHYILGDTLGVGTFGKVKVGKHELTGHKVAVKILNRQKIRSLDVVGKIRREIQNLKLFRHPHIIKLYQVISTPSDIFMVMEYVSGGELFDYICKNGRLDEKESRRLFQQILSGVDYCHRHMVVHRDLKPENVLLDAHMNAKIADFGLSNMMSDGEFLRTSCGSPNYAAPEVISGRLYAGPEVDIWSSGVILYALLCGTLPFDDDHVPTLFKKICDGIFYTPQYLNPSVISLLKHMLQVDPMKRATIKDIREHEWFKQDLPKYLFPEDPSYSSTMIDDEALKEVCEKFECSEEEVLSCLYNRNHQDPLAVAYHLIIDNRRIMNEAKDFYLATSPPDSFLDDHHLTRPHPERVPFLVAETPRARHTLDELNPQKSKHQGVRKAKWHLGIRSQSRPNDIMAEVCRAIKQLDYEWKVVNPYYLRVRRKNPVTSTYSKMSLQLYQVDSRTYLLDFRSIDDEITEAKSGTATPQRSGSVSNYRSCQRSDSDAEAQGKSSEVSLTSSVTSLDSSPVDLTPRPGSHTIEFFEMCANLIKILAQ

[9] = target: Sodium/hydrogen exchanger 1 (Homo sapiens, UniProt P19634); test: Affinity Biochemical interaction (pHi change assay) EUB0000545a SLC9A1; parameters: mode of action Negative control for BI-9627, recommended concentration 1 uM
Sequence of Sodium/hydrogen exchanger 1 (P19634 whole entry): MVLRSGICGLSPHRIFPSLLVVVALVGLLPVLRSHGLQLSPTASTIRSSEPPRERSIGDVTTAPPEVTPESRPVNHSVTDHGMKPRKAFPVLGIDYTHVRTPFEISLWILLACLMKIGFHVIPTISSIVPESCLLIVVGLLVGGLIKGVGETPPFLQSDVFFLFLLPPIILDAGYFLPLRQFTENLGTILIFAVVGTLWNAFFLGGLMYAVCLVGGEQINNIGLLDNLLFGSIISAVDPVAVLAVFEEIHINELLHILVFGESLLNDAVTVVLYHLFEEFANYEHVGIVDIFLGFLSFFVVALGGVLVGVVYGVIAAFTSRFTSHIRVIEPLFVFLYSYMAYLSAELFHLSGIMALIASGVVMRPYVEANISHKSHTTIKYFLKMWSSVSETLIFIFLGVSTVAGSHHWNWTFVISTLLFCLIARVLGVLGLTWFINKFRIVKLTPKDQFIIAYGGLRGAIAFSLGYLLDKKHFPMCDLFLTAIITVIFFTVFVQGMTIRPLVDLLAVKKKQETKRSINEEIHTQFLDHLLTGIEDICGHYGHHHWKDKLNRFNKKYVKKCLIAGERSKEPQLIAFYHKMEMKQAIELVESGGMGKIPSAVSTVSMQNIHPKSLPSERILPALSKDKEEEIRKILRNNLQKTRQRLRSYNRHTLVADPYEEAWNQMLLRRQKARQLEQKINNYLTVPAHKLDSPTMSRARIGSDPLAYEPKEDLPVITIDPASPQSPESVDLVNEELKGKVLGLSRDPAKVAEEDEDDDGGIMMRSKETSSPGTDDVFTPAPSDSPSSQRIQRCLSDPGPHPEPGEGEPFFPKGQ

[10] = target: Bifunctional epoxide hydrolase 2 (Homo sapiens, UniProt P34913); test: Affinity Biochemical interaction (Human soluble epoxide hydrolase inhibition) EUB0000541a EPHX2; parameters: mode of action Negative control for BI-1935, recommended concentration 100 nM
Sequence of Bifunctional epoxide hydrolase 2 (P34913 whole entry): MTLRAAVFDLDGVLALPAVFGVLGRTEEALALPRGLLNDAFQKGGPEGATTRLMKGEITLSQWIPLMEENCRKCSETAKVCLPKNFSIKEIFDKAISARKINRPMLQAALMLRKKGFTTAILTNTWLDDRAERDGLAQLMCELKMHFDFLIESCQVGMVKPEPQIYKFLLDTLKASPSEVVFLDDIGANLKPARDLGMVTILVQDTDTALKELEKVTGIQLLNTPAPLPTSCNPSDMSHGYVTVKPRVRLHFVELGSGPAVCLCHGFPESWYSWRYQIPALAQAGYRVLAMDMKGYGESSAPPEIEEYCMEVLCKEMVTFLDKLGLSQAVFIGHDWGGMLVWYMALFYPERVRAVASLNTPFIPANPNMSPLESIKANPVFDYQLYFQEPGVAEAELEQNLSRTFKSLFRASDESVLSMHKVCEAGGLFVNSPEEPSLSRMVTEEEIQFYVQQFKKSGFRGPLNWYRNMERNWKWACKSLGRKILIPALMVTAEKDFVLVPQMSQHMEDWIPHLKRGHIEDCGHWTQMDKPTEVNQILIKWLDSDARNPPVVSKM

Collagenase 3 = Collagenase 3 (Homo sapiens, UniProt P45452); test: Affinity Biochemical interaction (FRET assay) EUB0000727a MMP13; parameters: mode of action Negative control for BI-4394, recommended concentration 100 nM
Integrin alpha-L = Integrin alpha-L (Homo sapiens, UniProt P20701); test: Affinity Biochemical interaction (ITGAL binding assay (inhibition of LFA-1 binding to ICAM-1)) EUB0000549a ITGAL; parameters: mode of action Negative control for BI-1950, recommended concentration 100 nM
Fatty acid synthase = Fatty acid synthase (Homo sapiens, UniProt P49327); test: Affinity Biochemical interaction (Human FAS enzyme assay (measuring consumption of NADPH)) EUB0000738a FASN; parameters: mode of action Negative control for BI 99179, recommended concentration 1 uM
Cannabinoid receptor 1 = Cannabinoid receptor 1 (Homo sapiens, UniProt P21554); test: Affinity Biochemical interaction (Radioligand binding assay (CNR1, inverse agonism)) EUB0000316b CNR1; parameters: mode of action Negative control for MRL-650, recommended concentration 1 uM
Sequence of Cannabinoid receptor 1 (P21554 whole entry): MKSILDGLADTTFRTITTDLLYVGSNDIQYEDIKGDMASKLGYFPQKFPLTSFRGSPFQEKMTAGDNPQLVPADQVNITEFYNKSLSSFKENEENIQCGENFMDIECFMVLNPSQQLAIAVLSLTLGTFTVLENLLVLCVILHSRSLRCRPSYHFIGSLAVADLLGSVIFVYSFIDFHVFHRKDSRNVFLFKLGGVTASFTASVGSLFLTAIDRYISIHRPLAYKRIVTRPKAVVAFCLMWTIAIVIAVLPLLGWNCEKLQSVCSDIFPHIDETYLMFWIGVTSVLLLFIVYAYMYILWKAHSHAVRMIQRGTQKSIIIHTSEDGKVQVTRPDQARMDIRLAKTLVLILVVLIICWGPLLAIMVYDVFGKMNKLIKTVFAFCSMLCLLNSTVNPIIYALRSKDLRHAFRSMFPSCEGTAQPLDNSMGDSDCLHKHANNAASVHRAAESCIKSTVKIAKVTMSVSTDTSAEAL

[11] = target: Transient receptor potential cation channel subfamily M member 8 (Homo sapiens, UniProt Q7Z2W7); test: Affinity Biochemical interaction (Enzymatic assay) EUB0000546a TRPM8; parameters: mode of action Negative control for PF-05105679, recommended concentration 1 uM

Sequence of Fatty-acid amide hydrolase 1 (O00519 whole entry): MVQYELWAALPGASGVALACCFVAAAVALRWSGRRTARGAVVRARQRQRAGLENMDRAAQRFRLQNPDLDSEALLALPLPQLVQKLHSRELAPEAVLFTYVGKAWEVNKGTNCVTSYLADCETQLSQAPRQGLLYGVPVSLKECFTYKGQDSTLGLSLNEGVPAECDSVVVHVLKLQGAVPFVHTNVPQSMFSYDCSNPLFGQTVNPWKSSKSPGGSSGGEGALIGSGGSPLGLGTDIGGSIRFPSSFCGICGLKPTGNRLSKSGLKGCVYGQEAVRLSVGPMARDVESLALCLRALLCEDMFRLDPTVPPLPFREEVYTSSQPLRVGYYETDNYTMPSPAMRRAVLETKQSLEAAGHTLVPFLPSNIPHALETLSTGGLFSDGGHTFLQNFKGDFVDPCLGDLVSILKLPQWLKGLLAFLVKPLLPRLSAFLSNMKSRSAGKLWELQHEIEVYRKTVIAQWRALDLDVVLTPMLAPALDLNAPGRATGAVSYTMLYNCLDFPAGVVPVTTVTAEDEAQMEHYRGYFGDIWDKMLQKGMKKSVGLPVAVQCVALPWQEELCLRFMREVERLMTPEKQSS

Compound: O=C(Nc1cccnn1)N1CC(C/C=C/c2cncc(Oc3ccc(C(F)(F)F)cn3)n2)C1
- IC50 [1]: > 100 µM

Compound: O=C(O)c1ccc(-c2coc3ncc(-c4ccccc4)cc23)cc1Cl
- IC50 [2]: > 27 µM

Compound: C[C@H]1CCCN1Cc1nc2cc(NC(=O)c3ccc4cnccc4c3)ccc2[nH]1
- IC50 (Protein ENL): 0.15 µM
- IC50 (Protein AF-9): 0.254 µM

Compound: Cn1cncc1[C@@](O)(COc1ccc(C#N)cc1-c1ccc(OC(F)(F)F)cc1)c1ccc(C#N)cc1 [A-108]
- IC50 [3]: > 100 µM

Compound: Cn1cncc1[C@](O)(COc1ccc(C#N)cc1-c1ccc(OC(F)(F)F)cc1)c1ccc(C#N)cc1 [ABT-100]
- IC50 [6]: 50 pM

Compound: CC(=O)N1CCC(c2ccc(C(=O)NC3=NCCN3)cc2C(F)(F)F)CC1 [BI 0054]
- IC50 [9]: > 10 µM

Compound: O=C(Nc1ccc(-n2nc(-c3cccnc3)cc2C(F)(F)F)cn1)c1ccc(-c2ccccc2)c(F)c1 [BI 2049]
- IC50 [10]: > 3 µM

Compound: Cn1nc(C(=O)NCc2ccc(C(=O)O)cc2)cc1-c1ccc2[nH]ccc2c1 [BI 4395]
- IC50 (Collagenase 3): > 26 µM

Compound: C[C@@]1(Cc2ccc(C#N)cc2)C(=O)N(c2cc(Cl)cc(Cl)c2)c2ncc(C(=O)NC3(c4nc(C5CCC5)no4)CC3)n21 [BI 9446]
- Kd (Integrin alpha-L): > 1 µM

Compound: CCC(=O)N[C@@H]1CC[C@H](C(=O)N(C)c2ccc(-c3nc4ccccc4o3)cc2)C1 [BI 99990]
- IC50 (Fatty acid synthase): > 3 µM

Compound: CC(=O)c1c(NS(C)(=O)=O)c2cc(-c3ccc(Cl)cc3)c(-c3ccc(Cl)cc3Cl)nc2n(C)c1=O [MRL-CB1-NC]
- IC50 (Cannabinoid receptor 1): 0.0325 µM

The next lines start with the values.

- IC50 [4]: > 100 µM
Compound: CCC(=N\O)/C(C)=C/c1ccc(F)c(C)c1 [A-226]

- IC50 [5]: > 10 µM
Compound: CNC(=O)Nc1ccc2c(c1)[C@@]1(CC2)OC(=O)N(CC(=O)N(Cc2ccc(F)cc2)[C@@H](C)C(F)(F)F)C1=O [A-486]

- Kd (Angiopoietin-1 receptor): > 20 µM
Compound: Cc1cc(NC(=O)c2cccc(S(F)(F)(F)(F)F)c2)cc(-n2ccn3nc(-c4cccnc4)cc23)c1 [BAY-309]

- IC50 [7]: < 0.001 µM
Compound: CC1=C(C#N)C(c2ccc3[nH]nc(C)c3c2)C(C#N)=C(C)N1 [BAY-474]

- IC50 [8]: > 20 µM
Compound: CC1=C(C#N)C(c2ccc3c(c2)c(NC(=O)c2ccccc2C)nn3C)C(C#N)=C(C)N1 [BAY-974]

- IC50 [11]: > 10 µM
Compound: C[C@H](c1ccc(F)cc1)N(Cc1ccc(Cl)c(C(=O)O)c1)C(=O)c1cnc2ccccc2c1 [PF-05257137]
